Literature values as cited in patent publication US20200080027A1, “ADVANCED NOVEL ECO-FRIENDLY COMPOSITIONS” (priority 2015, published 2020).
Blank lines part the entries; values can stand above or below the molecule they belong to.

Legend:
[1] = skin contact
human = human consumption
normal volunteers = conditions: 15 g/day for 10 days, 18 normal volunteers

Molecule: [K+].[OH-] [Potassium hydroxide]
concentration of solution that is corrosive [1]: higher than 2%

Molecule: C/C=C/C=C/C(=O)[O-].[K+] [Potassium sorbate]
solubility in water (at 20° C.): 58.2% | genotoxicity / mutagenicity in vitro (human blood cells): both genotoxic and mutagenic | carcinogenic effects (rats): not been found to have any carcinogenic effects | maximum acceptable daily intake (human): 25 mg/kg

Molecule: O=C([O-])c1ccccc1.[Na+] [Sodium benzoate]
doses with no adverse effects in humans (humans): 647-825 mg/kg of body weight per day

water solubility: insoluble in water
Molecule: Span 80

Molecule: Xanthan gum
laxative effect (normal volunteers): highly efficient laxative
